The text below walks through data of ChEMBL document CHEMBL3132845, “Design and discovery of 4-anilinoquinazoline ureas as multikinase inhibitors targeting BRAF, VEGFR-2 and EGFR” (Medchemcomm, 2013).

Experiment [1] has as its target T1, Serine/threonine-protein kinase B-raf (Homo sapiens, UniProt P15056). The experiment is described as follows: Inhibition of BRAF (unknown origin) after 1 hr by LanthaScreen assay.
The target in experiment [2] is Epidermal growth factor receptor (Homo sapiens, UniProt P00533). The experiment is described as follows: Inhibition of EGFR (unknown origin) after 1 hr by Caliper mobility shift assay.
Chain of Epidermal growth factor receptor (P00533 whole entry): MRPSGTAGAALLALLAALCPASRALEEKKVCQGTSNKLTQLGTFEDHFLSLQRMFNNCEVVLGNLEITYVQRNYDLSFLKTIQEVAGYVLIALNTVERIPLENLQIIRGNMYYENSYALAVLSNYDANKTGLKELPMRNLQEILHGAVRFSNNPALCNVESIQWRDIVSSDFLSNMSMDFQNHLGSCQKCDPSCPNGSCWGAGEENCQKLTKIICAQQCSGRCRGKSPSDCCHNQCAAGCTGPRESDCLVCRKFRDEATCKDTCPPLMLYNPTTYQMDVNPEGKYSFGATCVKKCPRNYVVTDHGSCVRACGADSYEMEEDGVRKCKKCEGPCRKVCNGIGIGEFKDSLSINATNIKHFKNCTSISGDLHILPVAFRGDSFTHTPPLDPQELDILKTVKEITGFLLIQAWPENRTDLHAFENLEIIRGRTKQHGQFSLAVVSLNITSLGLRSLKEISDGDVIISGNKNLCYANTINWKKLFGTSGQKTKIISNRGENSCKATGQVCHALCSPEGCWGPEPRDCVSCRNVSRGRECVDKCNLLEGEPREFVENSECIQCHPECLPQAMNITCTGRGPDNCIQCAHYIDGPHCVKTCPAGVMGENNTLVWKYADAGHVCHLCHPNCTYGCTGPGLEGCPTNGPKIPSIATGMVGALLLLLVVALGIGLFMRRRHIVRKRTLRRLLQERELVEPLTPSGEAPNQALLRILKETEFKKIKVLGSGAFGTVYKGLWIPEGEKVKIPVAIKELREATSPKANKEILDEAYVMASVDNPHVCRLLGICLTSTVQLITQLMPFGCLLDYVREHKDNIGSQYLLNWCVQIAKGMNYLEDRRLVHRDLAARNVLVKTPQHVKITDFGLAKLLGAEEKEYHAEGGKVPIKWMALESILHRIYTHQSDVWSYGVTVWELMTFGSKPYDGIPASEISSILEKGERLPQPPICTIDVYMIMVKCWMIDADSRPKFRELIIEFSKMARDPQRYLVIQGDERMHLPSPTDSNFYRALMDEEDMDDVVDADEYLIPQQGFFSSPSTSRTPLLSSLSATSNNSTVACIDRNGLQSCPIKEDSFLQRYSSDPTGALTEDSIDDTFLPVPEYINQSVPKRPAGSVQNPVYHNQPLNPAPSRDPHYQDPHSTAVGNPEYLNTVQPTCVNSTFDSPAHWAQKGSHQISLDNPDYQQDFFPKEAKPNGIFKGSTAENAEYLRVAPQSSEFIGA
For experiment [3], the target named is T2, Vascular endothelial growth factor receptor 2 (Homo sapiens, UniProt P35968). Briefly: Inhibition of VEGFR2 (unknown origin) after 1 hr by Caliper mobility shift assay.
T2 sequence (P35968 whole entry): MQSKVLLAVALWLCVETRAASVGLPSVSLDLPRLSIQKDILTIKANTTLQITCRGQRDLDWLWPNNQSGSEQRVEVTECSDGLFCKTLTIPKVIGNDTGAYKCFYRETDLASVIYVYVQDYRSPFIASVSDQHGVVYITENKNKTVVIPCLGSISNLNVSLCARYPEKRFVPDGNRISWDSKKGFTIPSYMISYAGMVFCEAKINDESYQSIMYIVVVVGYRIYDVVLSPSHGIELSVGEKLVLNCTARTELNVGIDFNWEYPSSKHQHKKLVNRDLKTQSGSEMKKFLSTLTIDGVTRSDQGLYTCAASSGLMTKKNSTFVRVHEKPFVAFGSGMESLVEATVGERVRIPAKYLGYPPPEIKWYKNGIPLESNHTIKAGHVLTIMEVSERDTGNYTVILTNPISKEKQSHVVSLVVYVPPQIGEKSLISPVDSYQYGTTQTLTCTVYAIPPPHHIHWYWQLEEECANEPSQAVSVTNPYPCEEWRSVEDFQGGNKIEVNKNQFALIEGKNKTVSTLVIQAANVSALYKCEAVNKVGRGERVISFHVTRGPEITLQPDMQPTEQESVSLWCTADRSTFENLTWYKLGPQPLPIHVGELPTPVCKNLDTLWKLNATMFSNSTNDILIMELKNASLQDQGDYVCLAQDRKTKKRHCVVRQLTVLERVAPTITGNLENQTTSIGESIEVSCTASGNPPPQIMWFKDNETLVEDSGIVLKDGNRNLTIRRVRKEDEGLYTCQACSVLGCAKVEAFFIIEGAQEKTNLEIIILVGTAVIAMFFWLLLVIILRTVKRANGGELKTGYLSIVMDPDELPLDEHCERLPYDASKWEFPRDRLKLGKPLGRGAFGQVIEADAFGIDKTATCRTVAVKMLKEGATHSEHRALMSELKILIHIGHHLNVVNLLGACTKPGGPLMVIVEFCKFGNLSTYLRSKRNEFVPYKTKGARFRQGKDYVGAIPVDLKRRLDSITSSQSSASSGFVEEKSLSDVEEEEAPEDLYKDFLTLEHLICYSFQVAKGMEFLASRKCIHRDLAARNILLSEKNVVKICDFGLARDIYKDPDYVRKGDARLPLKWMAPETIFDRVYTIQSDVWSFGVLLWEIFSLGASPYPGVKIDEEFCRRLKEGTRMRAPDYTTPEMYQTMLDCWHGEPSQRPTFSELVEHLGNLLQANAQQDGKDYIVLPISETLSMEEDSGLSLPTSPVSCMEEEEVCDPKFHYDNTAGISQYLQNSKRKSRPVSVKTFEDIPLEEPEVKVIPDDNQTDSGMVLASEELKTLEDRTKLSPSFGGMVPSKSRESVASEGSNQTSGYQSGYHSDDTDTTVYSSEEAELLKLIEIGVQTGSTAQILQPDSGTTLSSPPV
Experiment [4] concerns the target Serine/threonine-protein kinase B-raf (Homo sapiens, UniProt P15056, V600E). The experiment is described as follows: Inhibition of BRAF V600E mutant (unknown origin) after 1 hr by LanthaScreen assay.
Experiment [5] addresses T2, Vascular endothelial growth factor receptor 2. The experiment is described as follows: Ratio of sorafenib IC50 to compound IC50 for VEGFR2 (unknown origin) after 1 hr by Caliper mobility shift assay.
Experiment [6] has as its target T1, Serine/threonine-protein kinase B-raf. Briefly: Ratio of sorafenib IC50 to compound IC50 for BRAF (unknown origin) after 1 hr by LanthaScreen assay. (Time-resolved FRET reads energy transfer from a long-lived donor to a nearby acceptor.)

Chain of Serine/threonine-protein kinase B-raf (Homo sapiens, UniProt P15056, V600E) (P15056 2-766 V600E limits assumed): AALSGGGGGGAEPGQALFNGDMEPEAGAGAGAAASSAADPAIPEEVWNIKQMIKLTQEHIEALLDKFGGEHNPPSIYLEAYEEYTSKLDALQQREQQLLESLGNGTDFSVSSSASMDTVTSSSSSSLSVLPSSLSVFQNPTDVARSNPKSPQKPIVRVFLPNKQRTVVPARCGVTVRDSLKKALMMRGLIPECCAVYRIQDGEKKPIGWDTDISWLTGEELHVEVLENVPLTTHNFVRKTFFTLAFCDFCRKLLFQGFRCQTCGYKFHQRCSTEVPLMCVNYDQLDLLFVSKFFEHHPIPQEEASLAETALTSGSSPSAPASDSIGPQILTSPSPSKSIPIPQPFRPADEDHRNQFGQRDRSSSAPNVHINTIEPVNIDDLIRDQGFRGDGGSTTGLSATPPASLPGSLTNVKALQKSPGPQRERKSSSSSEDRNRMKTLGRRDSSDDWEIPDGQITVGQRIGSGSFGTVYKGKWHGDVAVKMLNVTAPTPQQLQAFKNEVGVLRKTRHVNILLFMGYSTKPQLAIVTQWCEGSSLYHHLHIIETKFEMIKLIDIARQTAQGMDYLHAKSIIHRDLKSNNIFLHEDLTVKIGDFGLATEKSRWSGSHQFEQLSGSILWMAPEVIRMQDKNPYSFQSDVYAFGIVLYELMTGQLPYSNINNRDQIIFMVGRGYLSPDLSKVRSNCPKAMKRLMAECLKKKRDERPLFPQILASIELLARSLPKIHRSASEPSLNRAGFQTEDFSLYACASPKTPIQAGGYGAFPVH
T1 sequence (P15056 whole entry): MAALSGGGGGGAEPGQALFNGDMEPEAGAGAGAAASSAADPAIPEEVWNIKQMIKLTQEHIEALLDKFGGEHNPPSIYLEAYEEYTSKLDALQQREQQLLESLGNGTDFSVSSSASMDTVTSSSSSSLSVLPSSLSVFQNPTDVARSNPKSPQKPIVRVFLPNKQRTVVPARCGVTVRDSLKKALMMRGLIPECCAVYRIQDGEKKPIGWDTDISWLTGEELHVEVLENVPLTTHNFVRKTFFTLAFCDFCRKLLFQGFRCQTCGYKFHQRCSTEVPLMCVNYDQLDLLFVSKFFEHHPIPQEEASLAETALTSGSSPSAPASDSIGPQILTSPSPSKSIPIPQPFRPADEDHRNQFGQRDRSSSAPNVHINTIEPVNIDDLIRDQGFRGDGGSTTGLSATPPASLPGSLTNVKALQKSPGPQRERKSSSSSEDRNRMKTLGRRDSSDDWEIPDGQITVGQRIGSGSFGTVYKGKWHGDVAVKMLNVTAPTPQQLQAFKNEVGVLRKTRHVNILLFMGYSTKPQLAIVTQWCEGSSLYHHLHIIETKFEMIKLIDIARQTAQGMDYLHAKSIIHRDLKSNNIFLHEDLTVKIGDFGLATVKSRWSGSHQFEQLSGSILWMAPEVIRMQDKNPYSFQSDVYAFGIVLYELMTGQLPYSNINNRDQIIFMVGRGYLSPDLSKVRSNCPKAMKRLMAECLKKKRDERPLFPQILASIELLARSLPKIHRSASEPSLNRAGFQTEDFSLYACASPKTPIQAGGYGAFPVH

As to `COc1cc2ncnc(Nc3cccc(NC(=O)Nc4ccc(Cl)c(C(F)(F)F)c4)c3)c2cc1OCCCN1CCOCC1`, the 50% inhibitory concentration (IC50) in experiment [1] stood at 195 nM; in experiment [2] it was 82 nM; in experiment [3], 213 nM; in experiment [4] it was 75 nM.
For the molecule `O=C(Nc1cccc(Nc2ncnc3cc(OCCCN4CCN(CCO)CC4)ccc23)c1)Nc1ccc(Cl)c(C(F)(F)F)c1`, the 50% inhibitory concentration (IC50) in experiment [1] came out at 101 nM; in experiment [2] it was 99 nM; in experiment [3] it was 75 nM; in experiment [4], 58 nM.
In the case of `CCN(CCO)CCCOc1ccc2c(Nc3cccc(NC(=O)Nc4ccc(Cl)c(C(F)(F)F)c4)c3)ncnc2c1`, the IC50 in experiment [1] came out at 112 nM; in experiment [2], 188 nM; in experiment [3], 91 nM; in experiment [4], 53 nM.
Take `COc1cc2ncnc(Nc3ccc(NC(=O)Nc4ccc(Cl)c(C(F)(F)F)c4)cc3)c2cc1OCCCN1CCOCC1`: the Ratio IC50 in experiment [5] was 3. The IC50 in experiment [1] was determined as 539 nM; in experiment [2], 285 nM; in experiment [3], 17 nM; in experiment [4] it was 371 nM.
Turning to `COc1cc2ncnc(Nc3cccc(NC(=O)Nc4ccc(F)c(Cl)c4)c3)c2cc1OCCCN1CCOCC1`, in experiment [6], the Ratio IC50 is 4. Moreover, the IC50 in experiment [1] is 31 nM; in experiment [2] it was more than 10000 nM; in experiment [3] it was more than 10000 nM; in experiment [4], 55 nM.
Regarding `O=C(Nc1cccc(Nc2ncnc3cc(OCCCN4CCOCC4)ccc23)c1)Nc1ccc(F)c(Cl)c1`, the IC50 amounted to 72 nM in experiment [1], 3320 nM in experiment [2], 2170 nM in experiment [3] and 42 nM in experiment [4].
`COc1cc2ncnc(Nc3cccc(NC(=O)Nc4cccc(C)c4)c3)c2cc1OCCCN1CCOCC1`: the IC50 in experiment [1] came out at 119 nM; in experiment [2], 2350 nM; in experiment [3] it was 8570 nM; in experiment [4], 54 nM.
For the molecule `CCN(CCO)CCCOc1ccc2c(Nc3cccc(NC(=O)Nc4ccc(F)c(Cl)c4)c3)ncnc2c1`, the Ratio IC50 in experiment [6] came to 5. For the same molecule, the half-inhibitory concentration (IC50) in experiment [1] is 22 nM; in experiment [2], 165 nM; in experiment [3], 95 nM; in experiment [4] it was 13 nM.

The term IC50 denotes the concentration needed to halve the response being measured.
